Earlier results on one molecule are cited in US20260048005A1, “INJECTABLE THERMOSENSITIVE HYDROGELS FOR A SUSTAINED RELEASE OF IRON NANOCHELATORS” (The General Hospital Corporation, priority 2022, published 2026).

For the data set the following is noted: in rodents.

In the case of `CC(=O)N(O)CCCCCNC(=O)CCC(=O)N(O)CCCCCNC(=O)CCC(=O)N(O)CCCCCN` [DFO, deferoxamine], the half-life was 5 to 15 min.
